In paper PMC9516332 (Frontiers in Oncology, 2022):
Like-named read-outs stand apart in the source and are kept apart here.

How the values were obtained:
[1] = system: 134 cancer cell lines; test: Cell viability assay (ATPlite, 72 hours), IC50 on cancer cell line panel
[2] = system: AP-1060 (ETV6-NTRK3); test: Cell viability assay; conditions: read-out: IC50 in cell proliferation assay

## CN1CCN(c2ccc(C(=O)Nc3n[nH]c4ccc(Cc5cc(F)cc(F)c5)cc34)c(NC3CCOCC3)c2)CC1 [entrectinib]
[1]; Homo sapiens, MOLM-13, read-out: IC50 in cell proliferation assay, MOLM-13 cell line (FLT3 ITD)
  IC50: 0.214 µM
[1]; Homo sapiens, MOLT-4, read-out: IC50 in cell proliferation assay, MOLT-4 cell line
  IC50: 11.3 µM
[1]; Homo sapiens, MV4-11, read-out: IC50 in cell proliferation assay, MV4-11 cell line (FLT3 ITD)
  IC50: 0.281 µM
[1]; Homo sapiens, MeWo, read-out: IC50 in cell proliferation assay, MeWo cell line
  IC50: 10.1 µM
[1]; Homo sapiens, NCCIT, read-out: IC50 in cell proliferation assay, NCC-IT cell line
  IC50: 6.38 µM
[1]; Homo sapiens, NCI-H82, read-out: IC50 in cell proliferation assay, cell line NCI-H82
  IC50: 9.7 µM
[1]; Homo sapiens, NCI-H460, read-out: IC50 in cell proliferation assay, NCI-H460 cell line
  IC50: 9.99 µM
[1]; Homo sapiens, NCI-H661, read-out: IC50 in cell proliferation assay, NCI-H661 cell line
  IC50: 4.03 µM
[1]; Homo sapiens, NCI-H716, read-out: IC50 in cell proliferation assay, cell line NCI-H716 (FGFR2-COL14A1)
  IC50: 1.46 µM
[1]; Homo sapiens, NCI-H1650, read-out: IC50 in cell proliferation assay, NCI-H1650 cell line (EGFR exon19del)
  IC50: 2.44 µM
[1]; Homo sapiens, NCI-H1975, read-out: IC50 in cell proliferation assay, NCI-H1975 cell line (EGFR p.L858R + p.T790M)
  IC50: 4.15 µM
[1]; Homo sapiens, NCI-H2228, read-out: IC50 in cell proliferation assay, NCI-H2228 cell line (EML4-ALK)
  IC50: 0.196 µM
[1]; Homo sapiens, OVCAR-3, read-out: IC50 in cell proliferation assay, cell line OVCAR-3
  IC50: 8.35 µM
[1]; Homo sapiens, PFSK-1, read-out: IC50 in cell proliferation assay, cell line PFSK-1
  IC50: 7.82 µM
[1]; Homo sapiens, RL95-2, read-out: IC50 in cell proliferation assay, cell line RL95-2 (EGFR p.A289V)
  IC50: 3.32 µM
[1]; Homo sapiens, RPMI-7951, read-out: IC50 in cell proliferation assay, cell line RPMI-7951 (BRAF p.V600E)
  IC50: 4.02 µM
[1]; Homo sapiens, RS4-11, read-out: IC50 in cell proliferation assay, cell line RS4;11
  IC50: 8.24 µM
[1]; Homo sapiens, Rec1, read-out: IC50 in cell proliferation assay, cell line REC-1
  IC50: 5.02 µM
[1]; Homo sapiens, SHP77, read-out: IC50 in cell proliferation assay, cell line SHP-77
  IC50: 12.7 µM
[1]; Homo sapiens, SK-BR-3, read-out: IC50 in cell proliferation assay, cell line SK-BR-3 (ERBB2 amplification)
  IC50: 11.1 µM
[1]; Homo sapiens, SK-N-AS, read-out: IC50 in cell proliferation assay, cell line SK-N-AS
  IC50: 5.34 µM
[1]; Homo sapiens, SK-N-FI, read-out: IC50 in cell proliferation assay, cell line SK-N-FI
  IC50: 4.06 µM
[1]; Homo sapiens, SK-N-MC, read-out: IC50 in cell proliferation assay, cell line SK-N-MC
  IC50: 4.62 µM
[1]; Homo sapiens, SK-N-SH, read-out: IC50 in cell proliferation assay, cell line SK-N-SH (ALK p.F1174L)
  IC50: 2.8 µM
[1]; Homo sapiens, SNU-5, read-out: IC50 in cell proliferation assay, cell line SNU-5 (MET amplification)
  IC50: 9.58 µM
[1]; Homo sapiens, SNU-16, read-out: IC50 in cell proliferation assay, cell line SNU-16 (FGFR2 amplification)
  IC50: 2.13 µM
[1]; Homo sapiens, SNU-C2B, read-out: IC50 in cell proliferation assay, cell line SNU-C2B (EGFR p.R165Q)
  IC50: 8.12 µM
[1]; Homo sapiens, SU-DHL-1, read-out: IC50 in cell proliferation assay, cell line SU-DHL-1 (NPM1-ALK)
  IC50: 0.607 µM
[1]; Homo sapiens, SU-DHL-6, read-out: IC50 in cell proliferation assay, cell line SU-DHL-6
  IC50: 7.74 µM
[1]; Homo sapiens, SUP-T1, read-out: IC50 in cell proliferation assay, cell line SUP-T1
  IC50: 11 µM
[1]; Homo sapiens, SW48, read-out: IC50 in cell proliferation assay, cell line SW48 (EGFR p.G719S)
  IC50: 5.31 µM
[1]; Homo sapiens, SW480, read-out: IC50 in cell proliferation assay, cell line SW480
  IC50: 6.93 µM
[1]; Homo sapiens, SW626, read-out: IC50 in cell proliferation assay, cell line SW626
  IC50: 7.38 µM
[1]; Homo sapiens, SW780, read-out: IC50 in cell proliferation assay, cell line SW780 (FGFR3-BAIAP2L1)
  IC50: 2.85 µM
[1]; Homo sapiens, SW837, read-out: IC50 in cell proliferation assay, cell line SW837
  IC50: 8.38 µM
[1]; Homo sapiens, SW872, read-out: IC50 in cell proliferation assay, cell line SW872 (BRAF p.V600E)
  IC50: 6.09 µM
[1]; Homo sapiens, SW900, read-out: IC50 in cell proliferation assay, cell line SW900
  IC50: 6.64 µM
[1]; Homo sapiens, SW948, read-out: IC50 in cell proliferation assay, cell line SW948
  IC50: 9.44 µM
[1]; Homo sapiens, SW982, read-out: IC50 in cell proliferation assay, cell line SW982 (BRAF p.V600E)
  IC50: 5.31 µM
[1]; Homo sapiens, SW-620, read-out: IC50 in cell proliferation assay, cell line SW620
  IC50: 6.33 µM
[1]; Homo sapiens, T98G, read-out: IC50 in cell proliferation assay, cell line T98G
  IC50: 5.59 µM
[1]; Homo sapiens, TCC-SUP, read-out: IC50 in cell proliferation assay, cell line TCCSUP
  IC50: 6.42 µM
[1]; Homo sapiens, THP-1, read-out: IC50 in cell proliferation assay, cell line THP-1
  IC50: 12.9 µM
[1]; Homo sapiens, U2OS, read-out: IC50 in cell proliferation assay, cell line U2OS
  IC50: 4.45 µM
[1]; Homo sapiens, U-87 MG, read-out: IC50 in cell proliferation assay, cell line U-87MG ATCC
  IC50: 7.08 µM
[1]; Homo sapiens, U-118-MG, read-out: IC50 in cell proliferation assay, cell line U-118MG
  IC50: 6.88 µM
[1]; Homo sapiens, UMUC3, read-out: IC50 in cell proliferation assay, cell line UM-UC-3
  IC50: 6.87 µM
[1]; Hs766T, read-out: IC50 in cell proliferation assay, Hs 766T cell line
  IC50: 7.08 µM
[1]; L-82, read-out: IC50 in cell proliferation assay, L-82 cell line (NPM1-ALK)
  IC50: 0.125 µM
[1]; Rh30, read-out: IC50 in cell proliferation assay, cell line Rh30
  IC50: 4.64 µM
[1]; read-out: IC50 in cell proliferation assay, 11-18 cell line (EGFR p.L858R)
  IC50: 4.17 µM
[1]; read-out: IC50 in cell proliferation assay, Hs 852.T cell line
  IC50: 4.09 µM
[1]; read-out: IC50 in cell proliferation assay, JAR cell line
  IC50: 5.04 µM
[1]; read-out: IC50 in cell proliferation assay, cell line 5637
  IC50: 5.56 µM
[1]; read-out: IC50 in cell proliferation assay, cell line A-388
  IC50: 10.3 µM
[1]; read-out: IC50 in cell proliferation assay, cell line DB
  IC50: 10.5 µM
[1]; read-out: IC50 in cell proliferation assay, cell line DEL (NPM1-ALK)
  IC50: 0.216 µM
[1]; read-out: IC50 in cell proliferation assay, cell line ES-2 (BRAF p.V600E)
  IC50: 4.86 µM
[1]; read-out: IC50 in cell proliferation assay, cell line PA-1
  IC50: 3.03 µM
[1]; read-out: IC50 in cell proliferation assay, cell line PC-3
  IC50: 11 µM
[1]; read-out: IC50 in cell proliferation assay, cell line RD
  IC50: 5.09 µM
[1]; read-out: IC50 in cell proliferation assay, cell line RKO (BRAF p.V600E)
  IC50: 4.68 µM
[1]; read-out: IC50 in cell proliferation assay, cell line RL
  IC50: 10.9 µM
[1]; read-out: IC50 in cell proliferation assay, cell line RT-4 (FGFR3-TACC3)
  IC50: 2.94 µM
[1]; read-out: IC50 in cell proliferation assay, cell line SR (NPM1-ALK)
  IC50: 0.72 µM
[1]; read-out: IC50 in cell proliferation assay, cell line T24
  IC50: 7.12 µM
[1]; read-out: IC50 in cell proliferation assay, cell line TT (RET p.C634W)
  IC50: 9.26 µM
[1]; read-out: IC50 in cell proliferation assay, cell line VA-ES-BJ
  IC50: 6.41 µM
[2]
  IC50: 0.035 µM
